Test results taken from patent publication US10918713B2, “Epitopes from allergen proteins and methods and uses for immune response modulation” (LA JOLLA INSTITUTE FOR ALLERGY AND IMMUNOLOGY, priority 2012, dated 2021).

Experiments:
DRB3*0202 = DRB3*0202 (Homo sapiens, UniProt P01903+P79483, A212P/D57E/F66Y/L67A/R103Q/R218S/R40L/S89Y/T80R/V86D/Y55F/Y59H); test: biochemical
DRB3*0101 = DRB3*0101 (Homo sapiens, UniProt P01903+P79483); test: biochemical
DPA1*0103/DPB1*0201 = DPA1*0103/DPB1*0201 (Homo sapiens, UniProt P04440+P20036, A65V/A84D/A85E/K98E); test: biochemical
DPB1*0401 = DPB1*0401 (Homo sapiens, UniProt P04440+P20036); test: biochemical
DPA1*0201/DPB1*0501 = DPA1*0201/DPB1*0501 (Homo sapiens, UniProt P04440+P20036, A65V/A84E/F191V/F64L/G113D/G114E/K142R/L158P/M116V/M62Q/P115A/Q81R/R125K/T114A/T199I/T259P/V234M); test: biochemical
Chain of DPA1*0201/DPB1*0501 (P20036 29-260 M62Q/Q81R/T114A/K142R/L158P/F191V/T259P, other chains not shown): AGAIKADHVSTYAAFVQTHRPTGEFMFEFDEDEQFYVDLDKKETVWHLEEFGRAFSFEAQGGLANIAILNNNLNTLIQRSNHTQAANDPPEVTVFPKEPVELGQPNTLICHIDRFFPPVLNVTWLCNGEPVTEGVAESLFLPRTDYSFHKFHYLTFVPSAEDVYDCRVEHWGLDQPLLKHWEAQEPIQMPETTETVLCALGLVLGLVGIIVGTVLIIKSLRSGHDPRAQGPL

DPA1*0201/DPB1*0101 = DPA1*0201/DPB1*0101 (Homo sapiens, UniProt P04440+P20036, F191V/F38Y/F64Y/G113D/G114E/K142R/L158P/L37V/M105V/M116V/M62Q/P115A/Q81R/R125K/R223Q/T114A/T199I/T259P); test: biochemical
Chain of DPA1*0201/DPB1*0101 (P20036 29-260 M62Q/Q81R/T114A/K142R/L158P/F191V, other chains not shown): as the sequence (P20036 29-260 M62Q/Q81R/T114A/K142R/L158P/F191V/T259P, other chains not shown) above, with P231T counted along it

HLA-DQ = test: HLA locus restriction, mAb inhibition of ELISPOT response; assay type: cell-based, human; details: count; ≥50% inhibition by anti-HLA-DQ mAb SVPL3; 0/0/0 = locus could not be determined
Protocol: (§1) To determine the HLA locus restriction of identified epitopes, mAb inhibition assays were performed as described previously (11, 37). Preliminary determinations were made on control T cell clones of known specificity to determine optimal antibody doses leading to complete inhibition of the specific clones, and not associated with inhibition of clones known to be restricted by a different HLA allele or locus. This antibody concentration was then utilized in experiments where a dose response of antigenic peptide was tested in the presence or absence of the specific antibodies. Experimental determinations were performed utilizing ELISPOT assays specific for the particular lymphokine utilized to originally identify the particular epitope mapped.
(§2) For each antigenic region/donor combination short-term T cell lines were derived by extract stimulation of triplicate cultures of 2-3 million cells. IL-2 was added 5-8 days following stimulation. After 14 days of stimulation with the corresponding allergen extract (2-50 μg/ml), the HLA locus that restricted the response to the specific lymphokine was determined by measuring the capacity of mAbs specific for HLA-DR, DP or DQ to inhibit (block) the response. For this, PBMCs were incubated with 10 μg/ml of mAbs (Strategic Biosolutions, Windham, Me.) against HLA-DR (LB3.1), DP (B7/21) or DQ (SVPL3) 30 minutes prior to addition of 10 μg/ml of peptide. Cytokine production induced by positive peptides was then measured in ELISPOT assays as described above. The pan MHC class I Ab (W6/32) was used as a control. The decrease (inhibition) in cytokine production in the presence of an HLA locus specific mAb, relative to production in the absence of mAb, was determined.

HLA-DR = test: as above; assay type: cell-based, human; details: count; ≥50% inhibition by anti-HLA-DR mAb LB3.1; 0/0/0 = locus could not be determined
Protocol: as §1, §2

HLA-DP = test: as above; assay type: cell-based, human; details: count; ≥50% inhibition by anti-HLA-DP mAb B7/21; 0/0/0 = locus could not be determined
Protocol: as §1, §2

[1] = tested on: PBMC from allergic donors; test: Dual ELISPOT, total IL-5 and IFN-γ response (SFC); assay type: cell-based, human
Protocol: Spots were counted by computer-assisted image analysis (Zeiss, KS-ELISPOT reader, Munich, Germany).
Each assay was performed in triplicate. The level of statistical significance was determined with a Student's t-test using the mean of triplicate values of the response against relevant pools or individual peptides versus the response against the DMSO control.

Chain of DRB3*0202 (P01903 26-254 limits assumed): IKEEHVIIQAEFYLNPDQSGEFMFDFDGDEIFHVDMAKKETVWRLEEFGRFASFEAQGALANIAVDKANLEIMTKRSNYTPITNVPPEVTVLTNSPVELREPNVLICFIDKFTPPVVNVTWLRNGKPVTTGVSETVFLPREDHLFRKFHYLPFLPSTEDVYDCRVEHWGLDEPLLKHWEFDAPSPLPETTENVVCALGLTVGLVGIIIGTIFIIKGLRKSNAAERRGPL
Chain of DRB3*0202 (P79483 30-266 R40L/Y55F/D57E/Y59H/F66Y/L67A/T80R/V86D/S89Y/R103Q/A212P/R218S limits assumed): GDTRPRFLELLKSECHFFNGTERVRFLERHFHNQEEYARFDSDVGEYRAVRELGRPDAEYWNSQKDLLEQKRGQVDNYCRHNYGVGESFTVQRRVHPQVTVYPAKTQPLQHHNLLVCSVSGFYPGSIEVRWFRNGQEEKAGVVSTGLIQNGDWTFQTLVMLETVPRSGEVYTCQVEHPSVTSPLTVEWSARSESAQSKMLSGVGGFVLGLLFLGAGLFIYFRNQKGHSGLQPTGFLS

Molecule	IC50 (DRB3*0202)	IC50 (DRB3*0101)	IC50 (DPA1*0103/DPB1*0201)	IC50 (DPB1*0401)	IC50 (DPA1*0201/DPB1*0501)	IC50 (DPA1*0201/DPB1*0101)	Region restriction(s) DQ (HLA-DQ)	Region restriction(s) DR (HLA-DR)	Region restriction(s) DP (HLA-DP)	Donors responding ([1]; number of allergic donors recognizing the epitope region)	% responding ([1]; percent of tested allergic donors responding)	Total SFC ([1]; total response to the epitope region)
CC[C@H](C)[C@H](NC(=O)[C@H](CC(=O)O)NC(=O)[C@H](CC(=O)O)NC(=O)[C@H](CO)NC(=O)[C@@H](NC(=O)[C@@H](N)CCCCN)C(C)C)C(=O)N[C@H](C(=O)N[C@@H](Cc1ccc(O)cc1)C(=O)N[C@H](C(=O)N[C@@H](C)C(=O)N[C@H](C(=O)N[C@@H](C)C(=O)N[C@H](C(=O)N[C@@H](CC(C)C)C(=O)N1CCC[C@H]1C(=O)O)[C@@H](C)O)[C@@H](C)O)C(C)C)[C@@H](C)O [3324.0013]	5270 nM	6000 nM	18000 nM	1610 nM	–	–	–	–	–	–	–	–
CC[C@H](C)[C@H](NC(=O)[C@H](Cc1ccc(O)cc1)NC(=O)[C@H](C)NC(=O)[C@H](CC(=O)O)NC(=O)[C@H](C)NC(=O)[C@@H](N)C(C)C)C(=O)N[C@H](C(=O)N[C@@H](CC(C)C)C(=O)N[C@H](C(=O)N[C@H](C(=O)N[C@@H](CC(C)C)C(=O)N1CCC[C@H]1C(=O)N[C@@H](CCCCN)C(=O)N[C@@H](CO)C(=O)N[C@@H](CO)C(=O)O)[C@@H](C)O)C(C)C)[C@@H](C)O [3324.0016]	–	–	–	2500 nM	7.1 nM	40 nM	–	–	–	–	–	–
Bet v 1 (111-125): epitope region of allergen Bet v 1, Birch	–	–	–	–	–	–	0	2	0	3	30.0%	1132 SFC
